From PMC4865820, “Branched Peptide, B2088, Disrupts the Supramolecular Organization of Lipopolysaccharides and Sensitizes the Gram-negative Bacteria” (Scientific Reports, 2016)
Positions of bridges follow the written chain, without caps; N, C: chain ends. Non-standard residues stand in square brackets, D forms with d. Residues, ends and D or L forms follow the SMILES beside them. Chains are numbered I, II in the order given. *: point of attachment. X1 = CC[C@H](C)CCCCC(=O)*; Dab = NCC[C@H](N)C(=O)O

What was measured:
[1] = test system: LPS (E. coli serotype 055:B5); details: ref Torrent et al. [24]; cited from earlier work
Text: (§1) To investigate the interaction of B2088 with LPS, we performed the BODIPY TR cadaverine (BC) displacement assay reported by Wood et al.[22]. The probe binds to the lipid A part of the LPS with moderate affinity and can be displaced by putative LPS-binding molecules. The method was used to probe the affinity of polycationic molecules and LPS binding proteins. First, we determined the affinity of polymyxin B (PMB), a lipopeptide cyclic antibiotic which has a high affinity for LPS.

lipid A = assay: BODIPY TR cadaverine (BC) displacement assay with lipid A; format: binding; details: 5 mM HEPES pH 7.4; fluorescence ex 580/em 620 nm
Text: as §1, with “LPS. […] Figure 1a,b show the concentration-dependent displacement of LPS/lipid A-bound BC upon addition of B2088. […] To confirm the importance of branching, we determined the BC50 for a linear retrodimer having the amino acid sequence, […] (Fig. 1d). […]” for “LPS.”
The BC displacement assay was used to determine the ability of each peptide to bind to LPS. […] The maximum fluorescence intensity (Fmax) was determined using a mixture containing 100 μl PMB (50 μg/ml) and 100 μl BC:LPS solution, as PMB is considered the ‘gold standard’ for LPS-sequestering agents. The minimum fluorescence intensity (F0) was measured using 200 μl of BC:LPS mixture to determine the background noise for this experiment. Fluorescence measurements for each peptide (F) were determined using a microplate reader (Model: TECAN Infinite 200, Austria) with excitation and emission wavelengths set at 580 nm and 620 nm respectively. […]

[2] = test system: P. aeruginosa ATCC 9027 and P. aeruginosa DM4877/07 strains; assay: Time-kill kinetics; format: cell-based; details: ¼ × MIC of B2088 alone, 0–24 h, MHB, 37 °C
Text: It is likely that disruption of the supramolecular organization of LPS could enhance the intracellular accessibility of the antibiotics thus rendering the micro-organisms susceptible at sub-lethal concentration of the drugs. To confirm this, we performed time-kill kinetics at sub-lethal concentration of B2088, antibiotics and their combinations against two different P. aeruginosa strains. […] The effect was quite remarkable for the B2088-gatifloxacin combination as >5 log10 reduction in CFU/ml was apparent in less than 2 h against two different P. aeruginosa strains.
Figure 6 Antimicrobial efficacy of B2088-antibiotics combinations. Time-kill kinetics showing synergism between B2088 and other antibiotics. (a) B2088 and gatifloxacin against P. aeruginosa ATCC 9027 strains. (b) B2088 and gatifloxacin against P. aeruginosa DM4877/07 strains. (c) B2088 and tobramycin against P. aeruginosa DM4877/07 strains. (d) B2088 and chloramphenicol against P. aeruginosa DM4877/07 strains. Note that for simplicity B2088 and the antibiotics are represented by single letter codes (B – B2088, G – gatifloxacin, T – tobramycin, C – chloramphenicol).
The kinetics of bactericidal action of is assessed by using each drug alone or in combinations at their sub-inhibitory MICs. […]

K. pneumonia 07955 = assay: Checkerboard assay; format: cell-based, K. pneumoniae; details: for Fractional inhibitory concentration of B2088 used for FICI calculation: first number in parenthesis, in combination with the labelled antibiotic; for Fractional inhibitory concentration of antibiotic used for FICI calculation: second number in parenthesis, in combination with B2088
Experimental: (§2) The synergism between peptides with conventional antibiotics was evaluated using checkerboard assays. For a comparison polymyxin B (PMB) was also tested against each antibiotic. From their stock solutions, two-fold dilutions of each antibiotic and peptide to 1× MIC were prepared in MHB. 50 μl of each peptide concentration was added into the wells of a 96-well polystyrene plates (SPL Life Sciences Co. Ltd, Korea) in a horizontal orientation and the same volume of each antibiotic concentration were then added in a vertical orientation. Bacterial suspensions were prepared in MHB to yield final cell density of ~10^6 CFU/ml and 100 μl of bacterial suspension was mixed with each peptide-antibiotic combinations. This procedure was repeated for wells containing 200 μl of peptide alone and 200 μl of antibiotic alone in various concentrations. The positive and negative controls contained 200 μl of inoculum and MHB alone respectively. The plates were incubated at 37 °C for 24 hours and the optical density at 600 nm (OD600) was monitored as before. Fractional inhibitory concentration index (FICI) for all antibiotic- peptide combinations was calculated through the summation of (MIC of peptide in the combination/ MIC of peptide alone) and (MIC of antibiotics in combination/MIC of antibiotic alone). The experiments were performed in two independent duplicates and the combinations that gave the lowest FICI values was reported.

K. pneumonia 31158 = assay: Checkerboard assay; format: cell-based, K. pneumoniae; details: for Fractional inhibitory concentration of B2088 used for FICI calculation: first number in parenthesis, in combination with the labelled antibiotic; for Fractional inhibitory concentration of antibiotic used for FICI calculation: second number in parenthesis, in combination with B2088
Experimental: as §2

K. pneumonia 4299 = assay: Checkerboard assay; format: cell-based, K. pneumoniae; details: for Fractional inhibitory concentration of B2088 used for FICI calculation: first number in parenthesis, in combination with the labelled antibiotic; for Fractional inhibitory concentration of antibiotic used for FICI calculation: second number in parenthesis, in combination with B2088
Experimental: as §2

| Structure (SMILES) | ED50 (BC displacement from LPS), literature value [1] | ED50 (50% displacement of BC dye from lipid A) (lipid A) | Time-kill outcome [2] | Fractional Inhibitory Concentration Index of B2088 with the antibiotic (K. pneumonia 07955) | Fractional inhibitory concentration of B2088 used for FICI calculation (K. pneumonia 07955) | Fractional inhibitory concentration of antibiotic used for FICI calculation (K. pneumonia 07955) | Fractional Inhibitory Concentration Index of B2088 with the antibiotic (K. pneumonia 31158) | Fractional inhibitory concentration of B2088 used for FICI calculation (K. pneumonia 31158) | Fractional inhibitory concentration of antibiotic used for FICI calculation (K. pneumonia 31158) | Fractional Inhibitory Concentration Index of B2088 with the antibiotic (K. pneumonia 4299) | Fractional inhibitory concentration of B2088 used for FICI calculation (K. pneumonia 4299) | Fractional inhibitory concentration of antibiotic used for FICI calculation (K. pneumonia 4299) |
| --- | --- | --- | --- | --- | --- | --- | --- | --- | --- | --- | --- | --- |
| CC[C@H](C)CCCCC(=O)N[C@@H](CCN)C(=O)N[C@H](C(=O)N[C@@H](CCN)C(=O)N[C@H]1CCNC(=O)[C@H]([C@@H](C)O)NC(=O)[C@H](CCN)NC(=O)[C@H](CCN)NC(=O)[C@H](CC(C)C)NC(=O)[C@@H](Cc2ccccc2)NC(=O)[C@H](CCN)NC1=O)[C@@H](C)O [Polymyxin B, polymyxin B, reference compound] (X1-[Dab]T[Dab][Dab][Dab][dF]L[Dab][Dab]T; lactam 4-C (inferred); N-terminus assumed) | 2.5 ± 0.1 µM |  |  |  |  |  |  |  |  |  |  |  |
| CC(C)[C@H](NC(=O)[C@H](CCCCN)NC(=O)[C@H](CCCNC(=N)N)NC(=O)CNC(=O)[C@@H](N)CCCNC(=N)N)C(=O)N[C@H](C(=O)N[C@@H](CCCNC(=N)N)C(=O)N[C@@H](CCCNC(=N)N)C(=O)NCCCC[C@H](NC(=O)[C@H](CCCNC(=N)N)NC(=O)[C@H](CCCNC(=N)N)NC(=O)[C@@H](NC(=O)[C@@H](NC(=O)[C@H](CCCCN)NC(=O)[C@H](CCCNC(=N)N)NC(=O)CNC(=O)[C@@H](N)CCCNC(=N)N)C(C)C)C(C)C)C(=O)N[C@@H](CCCCN)C(=O)O)C(C)C [B2088] (I: H-RGRKVVRRKK-OH / II: H-RGRKVVRR; amide I:9-II:C; N-terminus and C-terminus assumed) |  | 0.7 ± 0.14 µM | no bacteriostatic or bactericidal activity |  |  |  |  |  |  |  |  |  |
| COc1c(N2CCNC(C)C2)c(F)cc2c(=O)c(C(=O)O)cn(C3CC3)c12 (stereo not drawn) [Gatifloxacin] |  |  |  | 0.63 | 0.13 | 0.5 | 0.56 | 0.06 | 0.5 | 0.56 | 0.06 | 0.5 |
| NC[C@H]1O[C@H](O[C@H]2[C@H](O)[C@@H](O[C@H]3O[C@H](CO)[C@@H](O)[C@H](N)[C@H]3O)[C@H](N)C[C@@H]2N)[C@H](N)C[C@@H]1O [Tobramycin] |  |  |  | 0.75 | 0.5 | 0.25 | 0.25 | (0.125,0.125) | (0.125,0.125) | 0.25 | (0.125,0.125) | (0.125,0.125) |
